Measurements reported in patent publication US20240228482A1, “COMPOUNDS, COMPOSITIONS AND METHODS OF TREATING CANCER” (HOTSPOT THERAPEUTICS, INC., priority 2021, published 2024).

Biological target: T1, CBL-B (Homo sapiens, UniProt Q13191)
T1 construct: GST
Test: CBL-B TR-FRET IC50 screening (E1/E2 ubiquitination, Biotin-Ubiquitin, Anti GST-Tb donor / Streptavidin-d2 acceptor)
Format: biochemical
Conditions: CBL-B 10 nM final; 11-point titration from 100 uM; binned A-F; read-out: CBL-B TR-FRET activity IC50

T1 sequence (Q13191 whole entry): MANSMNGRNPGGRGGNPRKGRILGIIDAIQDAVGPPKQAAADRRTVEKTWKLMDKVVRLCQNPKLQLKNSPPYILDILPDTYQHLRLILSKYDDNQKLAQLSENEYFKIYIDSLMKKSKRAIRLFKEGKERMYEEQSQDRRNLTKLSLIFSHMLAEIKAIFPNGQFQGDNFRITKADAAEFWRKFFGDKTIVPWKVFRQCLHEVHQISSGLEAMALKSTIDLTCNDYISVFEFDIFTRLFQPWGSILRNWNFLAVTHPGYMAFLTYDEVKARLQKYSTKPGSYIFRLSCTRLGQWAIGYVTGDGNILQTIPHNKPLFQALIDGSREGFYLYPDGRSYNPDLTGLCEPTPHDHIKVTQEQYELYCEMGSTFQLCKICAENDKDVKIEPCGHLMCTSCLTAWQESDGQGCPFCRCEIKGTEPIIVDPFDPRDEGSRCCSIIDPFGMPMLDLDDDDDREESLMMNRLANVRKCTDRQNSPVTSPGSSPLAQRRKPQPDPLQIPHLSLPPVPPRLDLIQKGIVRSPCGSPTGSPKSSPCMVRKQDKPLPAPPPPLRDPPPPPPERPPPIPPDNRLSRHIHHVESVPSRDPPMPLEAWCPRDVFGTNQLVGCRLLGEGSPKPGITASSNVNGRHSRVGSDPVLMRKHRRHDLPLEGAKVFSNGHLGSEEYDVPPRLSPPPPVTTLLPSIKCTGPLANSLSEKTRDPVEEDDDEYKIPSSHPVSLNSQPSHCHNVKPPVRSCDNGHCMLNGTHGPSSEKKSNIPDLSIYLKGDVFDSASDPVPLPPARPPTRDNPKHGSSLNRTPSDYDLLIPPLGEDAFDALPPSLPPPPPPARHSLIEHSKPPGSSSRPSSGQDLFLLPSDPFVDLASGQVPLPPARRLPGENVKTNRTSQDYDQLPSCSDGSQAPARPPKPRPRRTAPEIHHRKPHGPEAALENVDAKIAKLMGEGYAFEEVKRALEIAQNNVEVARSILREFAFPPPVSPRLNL

| Compound | IC50 |
| --- | --- |
| C[C@@H]1CN([C@H](C)c2cc(C(F)(F)F)c3cn(-c4cccc([C@H](c5nncn5C)C5CCC5)c4)c(=O)n3c2)CCO1 (single isomer, unassigned) [Compound 233] | < 100 nM |
| Cn1cnnc1[C@H](c1cccc(-n2cc3c(C(F)(F)F)cc(CN4CC[C@H](F)C4)cn3c2=O)c1)C1CCC1 [Compound 158] | 3000 to 10000 nM |
| Cn1cnnc1CC1(c2cc(C#N)cc(-n3cc4c(C(F)(F)F)cc(Br)cn4c3=O)c2)COC1 [Compound 254] | 1000 to 3000 nM |
| Cc1cc(-n2cc3c(C(F)(F)F)cc(CN4CCC[C@H](C)C4)cn3c2=O)cc(C2(Cc3nncn3C)COC2)c1 [Compound 239] | < 100 nM |
| Cn1cnnc1CC1(c2cccc(-n3cc4c(C(F)(F)F)cc(OCC(C)(C)O)cn4c3=O)c2)COC1 [Compound 98] | 100 to 300 nM |
| C[C@@H]1CN(Cc2cc(C(F)(F)F)c3cn(-c4cccc(C5(Cc6nncn6C)COC5)c4)c(=O)n3c2)CCO1 [Compound 12] | < 100 nM |
| CN(C)C(=O)c1cc(C(F)(F)F)c2cn(-c3cccc(C4(Cc5nncn5C)COC4)c3)c(=O)n2c1 [Compound 31] | 301 to 1000 nM |
| Cn1cnnc1[C@]1(c2cccc(-n3cc4c(C(F)(F)F)cc(CN5CC6(CC6)C5)cn4c3=O)c2)C[C@H](C)C1 (single isomer, unassigned) [Compound 236] | < 100 nM |
| Cn1cnnc1CSc1cccc(-n2cc3c(C(F)(F)F)cccn3c2=O)c1 [Compound 149] | > 10000 nM |
| CN1CC=C(c2cc(C(F)(F)F)c3cn(-c4cccc(C5(Cc6nncn6C)COC5)c4)c(=O)n3c2)C1 [Compound 78] | < 100 nM |
| Cn1cnnc1CC1(c2cccc(-n3cc4c(C(F)(F)F)cccn4c3=O)c2)CNC1 [Compound 144] | > 10000 nM |
| C[C@H]1CCCN(Cc2cc(C(F)(F)F)c3cn(-c4cccc([C@H](c5ncn[nH]5)C5CCC5)c4)c(=O)n3c2)C1 [Compound 270] | > 10000 nM |
| CC1CC(c2cccc(-n3cc4c(C(F)(F)F)cc(C#N)cn4c3=O)c2)(c2nncn2C)C1 (stereo not shown) [Compound 184] | < 100 nM |
| Cn1cnnc1CC1(c2cccc(-n3cc4c(C(F)(F)F)cc(C(C)(C)O)cn4c3=O)c2)COC1 [Compound 101] | 1000 to 3000 nM |
| [2H]C([2H])([2H])n1cnnc1C1(c2cccc(-n3cc4c(C(F)(F)F)cc(CN5CCC[C@H](C)C5)cn4c3=O)c2)CC(C)C1 (single isomer, unassigned) [Compound 189] | < 100 nM |
| C[C@@H]1CN(Cc2cc(C(F)(F)F)c3cn(-c4cccc(C5(Cc6nncn6C)COC5)c4)c(=O)n3c2)C[C@@H](C)O1 [Compound 201] | < 100 nM |
| Cn1cnnc1[C@@H](c1cccc(-n2cc3c(C(F)(F)F)cc(CN4CC5(CSC5)C4)cn3c2=O)c1)C1CCC1 [Compound 276] | < 100 nM |
| C[C@H](c1cc(C(F)(F)F)c2cn(-c3cccc(C4([C@@H](F)c5nncn5C)COC4)c3)c(=O)n2c1)N1CCC2(CC2)C1 [Compound 55] | < 100 nM |
| C=C(C)C[C@@H](c1cccc(-n2cc3c(C(F)(F)F)cc(CN4CCC[C@H](C)C4)cn3c2=O)c1)c1nncn1C (single isomer, unassigned) [Compound 68] | < 100 nM |
| Cn1cnnc1[C@H](c1cccc(-n2cc3c(C(F)(F)F)cc(CN4CC[C@H](C#N)C4)cn3c2=O)c1)C1CCC1 (single isomer, unassigned) [Compound 173] | 3000 to 10000 nM |
| [2H]C([2H])([2H])n1cnnc1CC1(c2cccc(-n3cc4c(C(F)(F)F)cc(CN5CCC[C@H](C)C5)cn4c3=O)c2)COC1 [Compound 198] | < 100 nM |
| Cn1cnnc1[C@@H](c1cccc(-n2cc3c(C(F)(F)F)cc(CN4CCC(C)(F)CC4)cn3c2=O)c1)C1CCC1 (single isomer, unassigned) [Compound 161] | < 100 nM |
| C[C@@H]1CN([C@H](C)c2cc(C(F)(F)F)c3cn(-c4cccc([C@@H](c5nncn5C)C5CCC5)c4)c(=O)n3c2)CCO1 (single isomer, unassigned) [Compound 231] | 3000 to 10000 nM |
| C[C@H]1CCCN(Cc2cc(C(F)(F)F)c3cn(-c4cccc([C@]5(c6nncn6C)C[C@@H](C)C5)c4)c(=O)n3c2)C1 (single isomer, unassigned) [Compound 59] | < 100 nM |
| Cn1cnnc1CC1(c2cccc(-n3cc4c(C(F)(F)F)cc(CN5CCC(F)CC5)cn4c3=O)c2)COC1 [Compound 13] | < 100 nM |

Other lines, results leading:

| IC50 | Compound |
| --- | --- |
| > 10000 nM | Cn1cnnc1[C@@H](c1cccc(-n2cc3c(C(F)(F)F)cc(CNC4CC(F)(F)C4)cn3c2=O)c1)C1CCC1 [Compound 346] |
| > 10000 nM | C[C@H]1CCCN(Cc2cc(C(F)(F)F)c3cn(-c4cccc([C@@H](c5nncn5C)C5CC(F)(F)C5)c4)c(=O)n3c2)C1 (single isomer, unassigned) [Compound 342] |
| < 100 nM | COC1(C)CN(Cc2cc(C(F)(F)F)c3cn(-c4cccc([C@H](c5nncn5C)C5CCC5)c4)c(=O)n3c2)C1 [Compound 296] |
| < 100 nM | CN(C)C(=O)C1CN(Cc2cc(C(F)(F)F)c3cn(-c4cccc([C@H](c5nncn5C)C5CCC5)c4)c(=O)n3c2)C1 [Compound 325] |
| < 100 nM | C[C@H]1CCCN(Cc2cc(C(F)(F)F)c3cn(-c4cccc([C@@H](CC5CC5)c5nncn5C)c4)c(=O)n3c2)C1 [Compound 332-p2] |

Same assay, conditions: second part of Table 2 (head 'Patent Cmpd No / Updated Activity'); same CBL-B TR-FRET IC50 bins A-F; read-out: Updated Activity

| IC50 | Compound |
| --- | --- |
| > 10000 nM | Cn1cnnc1[C@@H](c1cc(C#N)cc(-n2cc3c(C(F)(F)F)cc(CN4CC5(CC5)C4)cn3c2=O)c1)C1CCC1 (single isomer, unassigned) [Compound 557] |
| < 100 nM | CN1CC[C@@]2(CCN(Cc3cc(C(F)(F)F)c4cn(-c5cccc([C@H](c6nncn6C)C6CCC6)c5)c(=O)n4c3)C2)C1=O (single isomer, unassigned) [Compound 623] |
| < 100 nM | CO[C@H]1C[C@@](c2cccc(-n3cc4c(C(F)(F)F)cc([C@H](C)N5CCC(F)CC5)cn4c3=O)c2)(c2nncn2C)C1 (single isomer, unassigned) [Compound 603] |
| < 100 nM | Cn1cnnc1[C@H](c1cc(C#N)cc(-n2cc3c(C(F)(F)F)cc(CN4CCC5(CC5)C4)cn3c2=O)c1)C1CCC1 (single isomer, unassigned) [Compound 497] |
| > 10000 nM | CC(C)n1cnnc1[C@H](c1cccc(-n2cc3c(C(F)(F)F)cc(CN4CCC[C@H](C)C4)cn3c2=O)c1)C1CCC1 (single isomer, unassigned) [Compound 428] |
| < 100 nM | Cn1cnnc1C1(c2cccc(-n3cc4c(C(F)(F)F)cc(CN5CCC[C@@H](C(F)(F)F)C5)cn4c3=O)c2)CC2(CC2)C1 (single isomer, unassigned) [Compound 481] |
| < 100 nM | C[C@H](c1cc(C(F)(F)F)c2cn(-c3cccc([C@H](c4nncn4C)C4CCC4)c3)c(=O)n2c1)N1CCC[C@@H](C(F)(F)F)C1 (single isomer, unassigned) [Compound 613] |
| < 100 nM | Cn1cnnc1[C@@H](c1cccc(-n2cc3c(C(F)(F)F)cc(CN4CCC5CC54)cn3c2=O)c1)C1CCC1 (stereo partly shown) [Compound 528] |
| < 100 nM | C[C@@H]1C[C@H](C)CN(Cc2cc(C(F)(F)F)c3cn(-c4cccc([C@H](c5nncn5C)C5CCC5)c4)c(=O)n3c2)C1 [Compound 449] |
| < 100 nM | [2H]C([2H])(c1cc(C(F)(F)F)c2cn(-c3cccc([C@H](c4nncn4C)C4CCC4)c3)c(=O)n2c1)N1CCC[C@@H](C(F)(F)F)C1 [Compound 597_P2] |
| < 100 nM | Cn1cnnc1[C@@H](c1cccc(-n2cc3c(C(F)(F)F)cc(CN4CCOC4=O)cn3c2=O)c1)C1CCC1 [Compound 468] |
| 100 to 300 nM | CO[C@H]1C[C@](c2cccc(-n3cc4c(C(F)(F)F)cc([C@@H](C)N5CC[C@@H](F)C5)cn4c3=O)c2)(c2nncn2C)C1 (single isomer, unassigned) [Compound 617] |
| 3000 to 10000 nM | [2H]C([2H])(c1cc(C(F)(F)F)c2cn(-c3cccc([C@H](c4nncn4C)C4CCC4)c3)c(=O)n2c1)N1CCC[C@H](C(F)(F)F)C1 [Compound 597_P1] |
| 3000 to 10000 nM | CC(=O)NCc1cc([C@H](c2nncn2C)C2CCC2)cc(-n2cc3c(C(F)(F)F)cccn3c2=O)c1 (single isomer, unassigned) [Compound 479] |
| < 100 nM | Cn1cnnc1[C@H](c1cc(F)cc(-n2cc3c(C(F)(F)F)cc(CN4CC5(CC5)C4)cn3c2=O)c1)C1CCC1 (single isomer, unassigned) [Compound 539] |
| < 100 nM | Cn1cnnc1[C@@H](c1cccc(-n2cc3c(C(F)(F)F)cc(CN4CCCS4(=O)=O)cn3c2=O)c1)C1CCC1 [Compound 541] |
| > 10000 nM | COCc1nc([C@H](c2cccc(-n3cc4c(C(F)(F)F)cc(CN5CCC[C@H](C)C5)cn4c3=O)c2)C2CCC2)c(C)s1 (single isomer, unassigned) [Compound 386] |
| < 100 nM | C[C@H]1CCCN(Cc2cc(C(F)(F)F)c3cn(-c4cncc([C@@H](c5nncn5C)C5CCC5)c4)c(=O)n3c2)C1 [Compound 628_P1] |
| < 100 nM | CCS(=O)(=O)N(C)Cc1cc(C(F)(F)F)c2cn(-c3cccc([C@H](c4nncn4C)C4CCC4)c3)c(=O)n2c1 [Compound 590] |
| > 10000 nM | CC(=O)N1CC([C@@H](c2cccc(-n3cc4c(C(F)(F)F)cc(CN5CCC[C@H](C)C5)cn4c3=O)c2)c2nncn2C)C1 [Compound 434_P1] |
| > 10000 nM | COCC(COC)[C@@H](c1cccc(-n2cc3c(C(F)(F)F)cc(CN4CCC[C@H](C)C4)cn3c2=O)c1)c1nncn1C (single isomer, unassigned) [Compound 411] |
| 1000 to 3000 nM | COC1([C@H](c2cccc(-n3cc4c(C(F)(F)F)cc(CN5CCC[C@H](C)C5)cn4c3=O)c2)c2nncn2C)CCC1 (single isomer, unassigned) [Compound 578] |
| > 10000 nM | CNC(=O)Cc1cc([C@@H](c2nncn2C)C2CCC2)cc(-n2cc3c(C(F)(F)F)cccn3c2=O)c1 (single isomer, unassigned) [Compound 537] |
| > 10000 nM | COC[C@H]1C[C@H]([C@H](c2cccc(-n3cc4c(C(F)(F)F)cc(CN5CCC[C@H](C)C5)cn4c3=O)c2)c2nncn2C)C1 (single isomer, unassigned) [Compound 493] |
| > 10000 nM | COCC(COC)[C@H](c1cccc(-n2cc3c(C(F)(F)F)cc(CN4CCC[C@H](C)C4)cn3c2=O)c1)c1nncn1C (single isomer, unassigned) [Compound 410] |
